Measured values: patent US8952024B2, “Herbicidal pyrimidone derivatives” (E I du Pont de Nemours and Company, priority 2009, dated 2015)

Columns and labels:
Format in all cases: in vivo
[1] = tested on: barnyardgrass (Echinochloa crus-galli); test: Test B flooded paddy test; conditions: for Plant response rating, Flood, Barnyardgrass: 250 g ai/ha, flooded paddy test, visual rating on 0 to 100 scale (0 no effect, 100 complete control) after 13 to 15 days; for Plant response rating, Barnyardgrass: Flood (flooded paddy test), 13 to 15 days; for Barnyardgrass plant response rating: Flood, 31 g ai/ha, scale 0 to 100 (0 no effect, 100 complete control)
Summary of the method: (§1)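 2-leaf seedlings; pots flooded 3 cm over soil at treatment; cpd dosed into floodwater, depth kept constant. Greenhouse 13–15 d. Visual rating vs untreated controls, 0 = no effect, 100 = complete control.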

rice (Oryza sativa) = test: Test B flooded paddy test; conditions: for Plant response rating, Flood, Rice: 250 g ai/ha, flooded paddy test, visual rating on 0 to 100 scale (0 no effect, 100 complete control) after 13 to 15 days; for Plant response rating, Rice: Flood (flooded paddy test), 13 to 15 days; for Rice plant response rating: Flood, 31 g ai/ha, scale 0 to 100 (0 no effect, 100 complete control)
Summary of the method: as §1

[2] = tested on: umbrella sedge (Cyperus difformis); test: Test B flooded paddy test; conditions: for Plant response rating, Flood, Sedge, Umbrella: 250 g ai/ha, flooded paddy test, visual rating on 0 to 100 scale (0 no effect, 100 complete control) after 13 to 15 days; for Plant response rating, Sedge, Umbrella: Flood (flooded paddy test), 13 to 15 days; for Sedge, Umbrella plant response rating: Flood, 31 g ai/ha, scale 0 to 100 (0 no effect, 100 complete control)
Summary of the method: as §1

[3] = tested on: ducksalad (Heteranthera limosa); test: Test B flooded paddy test; conditions: for Plant response rating, Flood, Ducksalad: 250 g ai/ha, flooded paddy test, visual rating on 0 to 100 scale (0 no effect, 100 complete control) after 13 to 15 days; for Plant response rating, Ducksalad: Flood (flooded paddy test), 13 to 15 days; for Ducksalad plant response rating: Flood, 31 g ai/ha, scale 0 to 100 (0 no effect, 100 complete control)
Summary of the method: as §1

corn (Zea mays) = test: Test A pre-/postemergence plant response
Excerpt: (§2) Seeds of barnyardgrass (Echinochloa crus-galli), large crabgrass (Digitaria sanguinalis), giant foxtail (Setaria faberii), morningglory (Ipomoea spp.), pigweed (Amaranthus retroflexus), velvetleaf (Abutilon theophrasti), wheat (Triticum aestivum) and corn (Zea mays) were planted into a blend of loam soil and sand and treated preemergence with a directed soil spray using test chemicals formulated in a non-phytotoxic solvent mixture which included a surfactant. At the same time these species were also treated with postemergence applications of test compounds formulated in the same manner.
(§3) Plants ranged in height from two to ten cm and were in the one- to two-leaf stage for the postemergence treatment. Treated plants and untreated controls were maintained in a greenhouse for approximately ten days, after which time all treated plants were compared to untreated controls and visually evaluated for injury. Plant response ratings, summarized in Table A, are based on a 0 to 100 scale where 0 is no effect and 100 is complete control. A dash (-) response means no test result.

[4] = tested on: wheat (Triticum aestivum); test: Test A pre-/postemergence plant response
Excerpt: as §2, §3

[5] = tested on: barnyardgrass (Echinochloa crus-galli); test: Test A pre-/postemergence plant response
Excerpt: as §2, §3

[6] = tested on: giant foxtail (Setaria faberii); test: Test A pre-/postemergence plant response
Excerpt: as §2, §3

[7] = tested on: morningglory (Ipomoea spp.); test: Test A pre-/postemergence plant response
Excerpt: as §2, §3

[8] = tested on: pigweed (Amaranthus retroflexus); test: Test A pre-/postemergence plant response
Excerpt: as §2, §3

[9] = tested on: velvetleaf (Abutilon theophrasti); test: Test A pre-/postemergence plant response
Excerpt: as §2, §3

[10] = tested on: large crabgrass (Digitaria sanguinalis); test: Test A pre-/postemergence plant response
Excerpt: as §2, §3

[11] = 62 g ai/ha, scale of 0 to 100 where 0 is no effect and 100 is complete control
[12] = 125 g ai/ha, scale 0 to 100, 0 is no effect, 100 is complete control
[13] = Postemergence, 125 g ai/ha, 0 to 100 scale where 0 is no effect and 100 is complete control
[14] = Postemergence, 500 g ai/ha, 0 to 100 scale, 0 = no effect, 100 = complete control, approx. ten days
[15] = Preemergence, 125 g ai/ha, 0 to 100 scale, 0 = no effect, 100 = complete control
[16] = Preemergence, 500 g ai/ha, visual injury, 0 to 100 scale (0 no effect, 100 complete control), approx. ten days

## Cc1cc(-n2c(-c3cccc(Cl)c3)ncc(C(=O)C3=C(O)CCCC3=O)c2=O)ccc1F [Compound 133]
[1]
  Plant response rating, Flood, Barnyardgrass: 0
  Barnyardgrass plant response rating: 0
[1]; [11]
  Plant response rating, Barnyardgrass: 0
[1]; [12]
  Plant response rating, Barnyardgrass: 0
Rice (Oryza sativa)
  Plant response rating, Flood, Rice: 0
  Rice plant response rating: 0
Rice (Oryza sativa); [11]
  Plant response rating, Rice: 0
Rice (Oryza sativa); [12]
  Plant response rating, Rice: 0
[2]
  Plant response rating, Flood, Sedge, Umbrella: 100
  Sedge, Umbrella plant response rating: 0
[2]; [11]
  Plant response rating, Sedge, Umbrella: 60
[2]; [12]
  Plant response rating, Sedge, Umbrella: 95
[3]
  Plant response rating, Flood, Ducksalad: 100
  Ducksalad plant response rating: 60
[3]; [11]
  Plant response rating, Ducksalad: 60
[3]; [12]
  Plant response rating, Ducksalad: 100
Corn (Zea mays); [13]
  Plant response rating, Corn: 10
Corn (Zea mays); [14]
  Plant response rating, Corn: 40
Corn (Zea mays); [15]
  Plant response rating, Corn: 0
Corn (Zea mays); [16]
  Plant response rating, Corn: 20
[4]; [13]
  Plant response rating, Wheat: 20
[4]; [14]
  Plant response rating, Wheat: 40
[4]; [15]
  Plant response rating, Wheat: 0
[4]; [16]
  Plant response rating, Wheat: 20
[5]; [13]
  Plant response rating, Barnyardgrass: 20
[5]; [14]
  Plant response rating, Barnyardgrass: 90
[5]; [15]
  Plant response rating, Barnyardgrass: 10
[5]; [16]
  Plant response rating, Barnyardgrass: 100
[6]; [13]
  Plant response rating, Foxtail, Giant: 20
[6]; [14]
  Plant response rating, Foxtail, Giant: 90
[6]; [15]
  Plant response rating, Foxtail, Giant: 40
[6]; [16]
  Plant response rating, Foxtail, Giant: 80
[7]; [13]
  Plant response rating, Morningglory: 40
[7]; [14]
  Plant response rating, Morningglory: 70
[7]; [15]
  Plant response rating, Morningglory: 0
[7]; [16]
  Plant response rating, Morningglory: 0
[8]; [13]
  Plant response rating, Pigweed: 80
[8]; [14]
  Plant response rating, Pigweed: 100
[8]; [15]
  Plant response rating, Pigweed: 40
[8]; [16]
  Plant response rating, Pigweed: 100
[9]; [13]
  Plant response rating, Velvetleaf: 100
[9]; [14]
  Plant response rating, Velvetleaf: 100
[9]; [15]
  Plant response rating, Velvetleaf: 50
[9]; [16]
  Plant response rating, Velvetleaf: 100
[10]; [13]
  Plant response rating, Crabgrass, Large: 40
[10]; [14]
  Plant response rating, Crabgrass, Large: 100
[10]; [15]
  Plant response rating, Crabgrass, Large: 50
[10]; [16]
  Plant response rating, Crabgrass, Large: 100

## CCCCn1c(-c2cccc(Br)c2)ncc(C(=O)C2=C(O)CCCC2=O)c1=O [Compound 138]
[1]
  Plant response rating, Flood, Barnyardgrass: 25
[1]; [11]
  Plant response rating, Barnyardgrass: 0
Rice (Oryza sativa)
  Plant response rating, Flood, Rice: 15
Rice (Oryza sativa); [11]
  Plant response rating, Rice: 0
[2]
  Plant response rating, Flood, Sedge, Umbrella: 80
[2]; [11]
  Plant response rating, Sedge, Umbrella: 70
[3]
  Plant response rating, Flood, Ducksalad: 80
[3]; [11]
  Plant response rating, Ducksalad: 70
Corn (Zea mays); [13]
  Plant response rating, Corn: 20
Corn (Zea mays); [14]
  Plant response rating, Corn: 20
Corn (Zea mays); [15]
  Plant response rating, Corn: 0
Corn (Zea mays); [16]
  Plant response rating, Corn: 20
[4]; [13]
  Plant response rating, Wheat: 0
[4]; [14]
  Plant response rating, Wheat: 20
[4]; [15]
  Plant response rating, Wheat: 0
[4]; [16]
  Plant response rating, Wheat: 20
[5]; [13]
  Plant response rating, Barnyardgrass: 90
[5]; [14]
  Plant response rating, Barnyardgrass: 90
[5]; [15]
  Plant response rating, Barnyardgrass: 20
[5]; [16]
  Plant response rating, Barnyardgrass: 90
[6]; [13]
  Plant response rating, Foxtail, Giant: 60
[6]; [14]
  Plant response rating, Foxtail, Giant: 90
[6]; [15]
  Plant response rating, Foxtail, Giant: 30
[6]; [16]
  Plant response rating, Foxtail, Giant: 70
[7]; [13]
  Plant response rating, Morningglory: 50
[7]; [14]
  Plant response rating, Morningglory: 100
[7]; [15]
  Plant response rating, Morningglory: 0
[7]; [16]
  Plant response rating, Morningglory: 0
[8]; [13]
  Plant response rating, Pigweed: 100
[8]; [14]
  Plant response rating, Pigweed: 100
[8]; [15]
  Plant response rating, Pigweed: 50
[8]; [16]
  Plant response rating, Pigweed: 90
[9]; [13]
  Plant response rating, Velvetleaf: 100
[9]; [14]
  Plant response rating, Velvetleaf: 100
[9]; [15]
  Plant response rating, Velvetleaf: 20
[9]; [16]
  Plant response rating, Velvetleaf: 80
[10]; [13]
  Plant response rating, Crabgrass, Large: 70
[10]; [14]
  Plant response rating, Crabgrass, Large: 90
[10]; [15]
  Plant response rating, Crabgrass, Large: 40
[10]; [16]
  Plant response rating, Crabgrass, Large: 70

## O=C1CCCC(O)=C1C(=O)c1cnc(-c2cccc(Cl)c2)n(CC2CCCO2)c1=O (stereo not shown) [Compound 142]
[1]
  Plant response rating, Flood, Barnyardgrass: 10
  Barnyardgrass plant response rating: 0
[1]; [11]
  Plant response rating, Barnyardgrass: 0
[1]; [12]
  Plant response rating, Barnyardgrass: 0
Rice (Oryza sativa)
  Plant response rating, Flood, Rice: 0
  Rice plant response rating: 0
Rice (Oryza sativa); [11]
  Plant response rating, Rice: 0
Rice (Oryza sativa); [12]
  Plant response rating, Rice: 0
[2]
  Plant response rating, Flood, Sedge, Umbrella: 80
  Sedge, Umbrella plant response rating: 0
[2]; [11]
  Plant response rating, Sedge, Umbrella: 0
[2]; [12]
  Plant response rating, Sedge, Umbrella: 65
[3]
  Plant response rating, Flood, Ducksalad: 80
  Ducksalad plant response rating: 0
[3]; [11]
  Plant response rating, Ducksalad: 0
[3]; [12]
  Plant response rating, Ducksalad: 80
Corn (Zea mays); [13]
  Plant response rating, Corn: 0
Corn (Zea mays); [14]
  Plant response rating, Corn: 20
Corn (Zea mays); [15]
  Plant response rating, Corn: 0
Corn (Zea mays); [16]
  Plant response rating, Corn: 0
[4]; [13]
  Plant response rating, Wheat: 0
[4]; [14]
  Plant response rating, Wheat: 20
[4]; [15]
  Plant response rating, Wheat: 0
[4]; [16]
  Plant response rating, Wheat: 0
[5]; [13]
  Plant response rating, Barnyardgrass: 70
[5]; [14]
  Plant response rating, Barnyardgrass: 90
[5]; [15]
  Plant response rating, Barnyardgrass: 10
[5]; [16]
  Plant response rating, Barnyardgrass: 80
[6]; [13]
  Plant response rating, Foxtail, Giant: 30
[6]; [14]
  Plant response rating, Foxtail, Giant: 80
[6]; [15]
  Plant response rating, Foxtail, Giant: 0
[6]; [16]
  Plant response rating, Foxtail, Giant: 20
[7]; [13]
  Plant response rating, Morningglory: 100
[7]; [14]
  Plant response rating, Morningglory: 100
[7]; [15]
  Plant response rating, Morningglory: 0
[7]; [16]
  Plant response rating, Morningglory: 50
[8]; [13]
  Plant response rating, Pigweed: 90
[8]; [14]
  Plant response rating, Pigweed: 100
[8]; [15]
  Plant response rating, Pigweed: 90
[8]; [16]
  Plant response rating, Pigweed: 100
[9]; [13]
  Plant response rating, Velvetleaf: 100
[9]; [14]
  Plant response rating, Velvetleaf: 100
[9]; [15]
  Plant response rating, Velvetleaf: 20
[9]; [16]
  Plant response rating, Velvetleaf: 60
[10]; [13]
  Plant response rating, Crabgrass, Large: 70
[10]; [14]
  Plant response rating, Crabgrass, Large: 90
[10]; [15]
  Plant response rating, Crabgrass, Large: 30
[10]; [16]
  Plant response rating, Crabgrass, Large: 80
